Reference: publication PMC8996404, “The pharmacokinetics of buserelin after intramuscular administration in pigs and cows” (BMC Veterinary Research, 2022)
Like-named read-outs stand apart in the source and are kept apart here.

What was measured:
[1] = cited from earlier work
Protocol: After being approved by the European Medicines Agency (EMA) in 1995 [1], there are some pharmacokinetic studies of buserelin been reported in humans and rats following subcutaneous (s.c.), intranasal (i.n.), or intravenous (i.v.) routes. […] Regardless of the administration route of buserelin, the elimination of half- ... || The Vd was 80.49 ± 43.88 L for pigs and 839.88 ± 174.77 L for cows, which is larger than pigs (304 ± 112 mL/kg) at a single dose 1 mg i.v., and dogs (50.1 ± 2.4 mL/kg) at a single dose 5 mg i.v.. High plasma concentration, high bonding rate, means more drugs cannot across the membrane and barrier. Therefore, binding changes can affect the distribution of drugs. Because protein binding of buserelin is about 15% [2], it is proportional to the body volume and body weight and animals using in this study had larger volume of body water or extracellular water. It has been repo ...

[2] = Stability of buserelin in pig plasma (autosampler, benchtop, freeze–thaw); assay type: in vitro ADME; conditions: for Stability, Accuracy Mean ± SD: pig plasma, UPLC-MS/MS
Protocol: Selectivity has been assessed by comparing the chromatograms of blank plasma samples and those of corresponding items with buserelin to exclude the interfering peaks. The calibration curve was established by spiking the blank matrix with known concentration of buserelin. Limit of detection (LOD) and Limit of quantification (LOQ) were determined as the concentrations of buserelin which produced signal/ noise ratio of 3 and 10, respectively. For linearity of this method, calibration curves were generated by least squares regression method with a weighting factor and regression coefficient. Recovery was determined by comparing the analytical results of the extracted quality control (QC) samples with pure standard solution. The accuracy was assessed as the percentage of the measured concentration to the nominal standard concentration. The precision was expressed by coefficient of variation. Stability was assessed by autosampler, benchtop, freeze–thaw, and stock solution test. The matrix effect was obtained with the area of post-extraction blank plasma samples added with buserelin at two levels with the equivalent concentration standard solutions that added with initiate mobile phase.

[3] = Plasma pharmacokinetics of buserelin after i.m. administration in pigs; assay type: in vivo; conditions: for MRT: pig, 1 mg per pig
Protocol: The UPLC-MS/MS system (Waters Acquity UPLC and Waters Quattro Premier, Waters Co., USA) and the chromatographic column (Agilent Poroshell 120 EC-C18, 4.6 × 100 mm, 2.7 µm) were used in this study. The separation was performed with 0.1% formic acid in water (mobile phase solvent A) and 0.1% formic acid in acetonitrile (solvent B) with a flow rate of 0.6 mL/min. The gradient elution program was optimized as follow: 75% A (0–0.5 min), 10% A (5–7 min) 75% A (7.1–10 min). The sample was injected at a volume of 5 µL at 30℃. The mass spectrometer was operated in the positive ion detection mode with the capillary voltage set at 5.5 kV and the source temperature was 550 ℃. Others parameters were as follows: nebulizer gas pressure was 55 psi, ion source gas pressure was 60 psi, curtain gas pressure was 30 psi, declustering potential was 68 V, entrance potential was 10 V, and collision cell exit potential was 13 V.
Five healthy adult female Danish Landrance × Yorkshire × Duroc pigs (100–120 days, 50–60 kg, Ningbo Kuangdai Husbandry Co., Ltd. Ningbo China) and five healthy adult female Holstein cows (1.5–2 years, 440–500 kg, Ningbo Milk Group Co., Ltd. Ningbo China) were randomly selected to use in this research. All animals were examined by a local veterinarian with regard to physical, hematologic, and biochemical conditions during the two-week adaptation period. The two protocols used in this study were reviewed and approved by the Institutional Animal Care and Use Committee of China Agricultural University (pigs: 11605–20-D-007; cows: 11605–20-B-003). Buserelin injection solution (0.5 mg/mL, 10 mL) was acquired from Ningbo Sansheng Pharmaceutical Company. In order to avoid introducing bias results from feeding, each animal in the study fasted for approximately 12 h. Each pig received 1 mg buserelin injection solution (about 0.018 mg/kg), and each cow received 3 mg (about 0.0064 mg/kg). During the entire experiment, water was available ad libitum. Adverse symptoms were recorded and evaluated. Blood samples of 5 mL were collected into heparinized tube (pigs: anterior vena cava; cows: vena jugularis interna) at 0, 0.083, 0.167, 0.333, 0.5, 0.75, 1, 1.5, 2, 3, 4, 5, 6, 7, and 8 h after i.m. administration. The blood samples were centrifuged for 5 min at 2775 × g. Plasma samples were stored in -20 ℃ until analysis (within 21 days of collection).
Frozen plasma samples were thawed and vortexed, and 500 µL plasma and 1 mL 0.1% formic acid in acetonitrile were mixed together. After 10 min ultrasonic treatment, the samples were centrifuged for 10 min at 11,100 × g. The upper layer was collected and the remainder was treated twice. These two supernatants were added together, the samples were evaporated via nitrogen gas at 40 ℃, and redissolved in 2.5 mL 0.1% formic acid in acetonitrile-0.1% formic acid in water (1:3 v/v). After filtered through a 0.22 µm microbore cellulose membrane, the samples were collected and bottled to UPLC-MS/MS system for analysis.
Plasma concentrations of buserelin were analyzed using the established method, and the pharmacokinetic parameters were calculated via a non-compartmental analysis model 200 in WinNonlin software (WinNolin 8.1.0 Certara, Pharsight, Mountain View, CA, USA) and expressed in mean ± standard deviation (SD), and no statistical tests were applied.

[4] = cited from earlier work; remark: listed apart in the source
Description: After being approved by the European Medicines Agency (EMA) in 1995 [1], there are some pharmacokinetic studies of buserelin been reported in humans and rats following subcutaneous (s.c.), intranasal (i.n.), or intravenous (i.v.) routes. […] High plasma concentration, high bonding rate, means more drugs cannot across the membrane and barrier. Therefore, binding changes can affect the distribution of drugs. Because protein binding of buserelin is about 15% [2], it is proportional to the body volume and body weight and animals using in this study had larger volume of body water or extracellular water. It has been repo ...

[5] = female, Danish Landrance × Yorkshire × Duroc, im, single i.m. dose 1 mg per pig, plasma, mean ± SD, n = 5
[6] = single i.m. dose 1 mg per pig, plasma, mean ± SD, n = 5

In the case of CCNC(=O)[C@@H]1CCCN1C(=O)[C@H](CCCNC(=N)N)NC(=O)[C@H](CC(C)C)NC(=O)[C@@H](COC(C)(C)C)NC(=O)[C@H](Cc1ccc(O)cc1)NC(=O)[C@H](CO)NC(=O)[C@H](Cc1c[nH]c2ccccc12)NC(=O)[C@H](Cc1cnc[nH]1)NC(=O)[C@@H]1CCC(=O)N1 [buserelin, Buserelin], the Protein binding [1] is given as “about 15%”, the “rapid initial half time / t1/2” value ([1]; guinea pigs, i.v. ref 1) is given as 12 min and the “Stability, Accuracy Mean ± SD” value ([2]; autosampler, concentration 0.5 ng/mL) is given as 0.51 ± 0.04. For the same molecule, the “Stability, Accuracy Mean ± SD” value ([2]; autosampler, concentration 20 ng/mL) was 19.70 ± 2.32, the “Stability, Accuracy Mean ± SD” value ([2]; benchtop, concentration 0.5 ng/mL) was 0.47 ± 0.02 and the “Stability, Accuracy Mean ± SD” value ([2]; benchtop, concentration 20 ng/mL) was 19.72 ± 1.61. The “Stability, Accuracy Mean ± SD” value ([2]; freeze–thaw, concentration 0.5 ng/mL) was 0.51 ± 0.04, the “Stability, Accuracy Mean ± SD” value ([2]; freeze–thaw, concentration 20 ng/mL) was 19.95 ± 1.12 and the “Stability during autosampler, benchtop, freeze–thaw, and stock solution test” value ([2]; summary statement for pig plasma, cow plasma and stock solution (Table 3)) was “stable”. It also gave a tmax ([3]; female, Danish Landrance × Yorkshire × Duroc, im, single i.m. dose 1 mg per pig (about 0.018 mg/kg), plasma, UPLC-MS/MS, non-compartmental, mean ± SD, n = 5) of 34.2 ± 10.8 min, an AUC(0-t) ([3]; female, Danish Landrance × Yorkshire × Duroc, im, single i.m. dose 1 mg per pig, plasma, 0 to last measurement point, mean ± SD, n = 5) of 25 ± 6.93 ng·h/mL and a Cmax ([3]; female, Danish Landrance × Yorkshire × Duroc, im, single i.m. dose 1 mg per pig, plasma, UPLC-MS/MS, non-compartmental, mean ± SD, n = 5) of 11 ± 2.04 ng/mL. For the same molecule, the AUC(0-inf) [3, 5] was 25.8 ± 6.75 ng·h/mL, the CL/F [3, 5] was 686 mL/min and the Vd/F [3, 5] was 80.5 ± 43.9 L. For the same molecule, the half-life ([3]; female, Danish Landrance × Yorkshire × Duroc, im, single i.m. dose 1 mg per pig, plasma, non-compartmental, mean ± SD, n = 5, read-out: t1/2 (elimination half-time) (converted)) was 77.4 ± 24 min, the MRT ([3]; female, Danish Landrance × Yorkshire × Duroc, plasma, im, single i.m. dose 1 mg per pig, plasma, mean ± SD, n = 5, read-out: MRT0-t) was 128 ± 16.2 min and the MRT ([3]; female, Danish Landrance × Yorkshire × Duroc, plasma, im, single i.m. dose 1 mg per pig, plasma, mean ± SD, n = 5, read-out: MRT0-∞) was 141 ± 13.8 min. The Cmax/D ([3]; single i.m. dose 1 mg per pig (about 0.018 mg/kg), rate of Cmax to dosage, mean ± SD, n = 5) was 610.19 ± 79.93 ng/mL/mg/kg, the Adverse effects ([3]; single i.m. dose 1 mg per pig, n = 5) was “No adverse effects were observed” and the AUMClast [3, 6] was 59.59 ± 16.54 h × h × ng/mL. The “ka (absorption rate constant)” value [3, 6] was 0.48 ± 0.07 h⁻¹, the tmax ([4]; health volunteers, single dose 5 µg s.c. ref 3) was 42 min and the tmax ([4]; health volunteers, single dose 150 µg i.n. ref 3) was 58 min. For the same molecule, the tmax ([4]; health volunteers, single dose 300 µg i.n. ref 3) was 43.8 min, the tmax ([4]; health volunteers, single dose 450 µg i.n. ref 3) was 38.8 min and the tmax ([4]; health volunteers, single dose 500 µg i.v. ref 3) was 20 min. The elimination half-time ([4]; human, regardless of the administration route ref 2, 3) was 72 to 120 min, the tmax ([4]; rats (anesthetized), single dose of 0.1 mg/kg i.n. ref 18) was 115 ± 25.2 min and the “rapid initial half time / t1/2” value ([4]; rats, i.v. ref 1) was 5 min. For the same molecule, the t1/2 ([4]; rats, single dose of 6 mg/kg s.c. injection ref 13) was 42 min.
